Earlier results as cited in patent US10888120B2, “Non-tobacco nicotine containing article” (Philip Morris Products S.A., priority 2013, dated 2021).

Conditions: "experienced" ENDS users (using ENDS for about 1 year)

CN1CCCC1c1cccnc1 (stereo not shown) [nicotine]
plasma nicotine concentration (Cmax): 10.3 ng/mL
